Experimental data: the NIST ThermoML archive (doi:10.1021/je8001255)

Experiment: an = ratio of the nth substance listed, in mol/kg
Settings: 100 kPa, Liquid; for electrical conductivity: Alternating current cell with electrodes

O=S(=O)([O-])[O-].[Mn+2] [manganese(II) sulfate] + O
Settings | electrical conductivity, 278.15 K [S/m] | electrical conductivity, 283.15 K [S/m] | electrical conductivity, 288.15 K [S/m] | electrical conductivity, 293.15 K [S/m] | electrical conductivity, 298.15 K [S/m] | electrical conductivity, 303.15 K [S/m] | electrical conductivity, 308.15 K [S/m] | mass density, 298.15 K [kg/m3]
a1 = 0.00499 | 0.0524 | 0.06 | 0.068 | 0.0761 | 0.0844 | 0.0928 | 0.101 | 997.79
a1 = 0.00999 | 0.0922 | 0.106 | 0.119 | 0.134 | 0.148 | 0.162 | 0.177 | 998.55
a1 = 0.01997 | 0.16 | 0.183 | 0.207 | 0.231 | 0.255 | 0.279 | 0.303 | 1000.02
a1 = 0.05028 | 0.333 | 0.38 | 0.428 | 0.477 | 0.526 | 0.575 | 0.622 | 1004.5
a1 = 0.1005 | 0.575 | 0.656 | 0.739 | 0.822 | 0.905 | 0.987 | 1.07 | 1011.91
a1 = 0.1991 | 1.01 | 1.15 | 1.29 | 1.44 | 1.58 | 1.72 | 1.86 | 1026.55
a1 = 0.3159 | 1.39 | 1.59 | 1.78 | 1.98 | 2.18 | 2.37 | 2.56 | 1044.23
a1 = 0.4963 | 1.93 | 2.2 | 2.47 | 2.75 | 3.03 | 3.3 | 3.57 | 1072.29
a1 = 0.7442 | 2.5 | 2.85 | 3.21 | 3.57 | 3.93 | 4.29 | 4.65 | 1112.53
a1 = 0.9865 | 2.95 | 3.36 | 3.79 | 4.22 | 4.65 | 5.08 | 5.5 | 1153.87
a1 = 1.208 | 3.07 | 3.51 | 3.97 | 4.44 | 4.91 | 5.38 | 5.85 | 1194.32
a1 = 1.384 | 3.1 | 3.57 | 4.04 | 4.53 | 5.03 | 5.52 | 6.02 | 1227.02
a1 = 1.653 | 2.98 | 3.44 | 3.93 | 4.43 | 4.95 | 5.46 | 5.98 | 1280.18
a1 = 1.826 | 2.78 | 3.25 | 3.72 | 4.21 | 4.72 | 5.23 | 5.75 | 1318.47
a1 = 2.082 | 2.41 | 2.84 | 3.29 | 3.76 | 4.25 | 4.74 | 5.24 | 1371.35
a1 = 2.189 | 2.19 | 2.6 | 3.02 | 3.47 | 3.93 | 4.41 | 4.89 | 1398.09
a1 = 2.434 | 1.6 | 1.93 | 2.28 | 2.66 | 3.06 | 3.48 | 3.9 | 1452.93

O=S(=O)([O-])[O-].[Ni+2] [nickel monosulfate] + O
Settings | electrical conductivity, 278.15 K [S/m] | electrical conductivity, 283.15 K [S/m] | electrical conductivity, 288.15 K [S/m] | electrical conductivity, 293.15 K [S/m] | electrical conductivity, 298.15 K [S/m] | electrical conductivity, 303.15 K [S/m] | electrical conductivity, 308.15 K [S/m] | mass density, 298.15 K [kg/m3]
a1 = 0.006 | 0.0606 | 0.0696 | 0.079 | 0.0886 | 0.0984 | 0.108 | 0.119 | 998.02
a1 = 0.02566 | 0.192 | 0.221 | 0.25 | 0.28 | 0.31 | 0.341 | 0.372 | 1001.23
a1 = 0.04922 | 0.321 | 0.368 | 0.417 | 0.467 | 0.517 | 0.568 | 0.618 | 1005.09
a1 = 0.122 | 0.656 | 0.753 | 0.852 | 0.954 | 1.06 | 1.16 | 1.26 | 1017.09
a1 = 0.25 | 1.18 | 1.36 | 1.54 | 1.72 | 1.91 | 2.09 | 2.28 | 1038.54
a1 = 0.3674 | 1.55 | 1.78 | 2.01 | 2.25 | 2.5 | 2.75 | 2.99 | 1058.67
a1 = 0.4988 | 1.94 | 2.23 | 2.52 | 2.83 | 3.14 | 3.45 | 3.76 | 1081.77
a1 = 0.68 | 2.39 | 2.75 | 3.12 | 3.51 | 3.9 | 4.29 | 4.63 | 1114.8
a1 = 0.7969 | 2.64 | 3.04 | 3.45 | 3.88 | 4.31 | 4.75 | 5.19 | 1136.9
a1 = 1.022 | 2.99 | 3.46 | 3.94 | 4.44 | 4.95 | 5.47 | 5.99 | 1181.4
a1 = 1.156 | 3.13 | 3.62 | 4.13 | 4.67 | 5.22 | 5.77 | 6.34 | 1208.94
a1 = 1.394 | 3.21 | 3.73 | 4.29 | 4.87 | 5.47 | 6.08 | 6.7 | 1260.5
a1 = 1.601 | 3.11 | 3.64 | 4.2 | 4.8 | 5.42 | 6.06 | 6.7 | 1308
a1 = 1.783 | 2.89 | 3.42 | 3.99 | 4.59 | 5.22 | 5.86 | 6.53 | 1351.92

O=S(=O)([O-])[O-].[Zn+2] [zinc sulfate] + O
Settings | electrical conductivity, 278.15 K [S/m] | electrical conductivity, 283.15 K [S/m] | electrical conductivity, 288.15 K [S/m] | electrical conductivity, 293.15 K [S/m] | electrical conductivity, 298.15 K [S/m] | electrical conductivity, 303.15 K [S/m] | electrical conductivity, 308.15 K [S/m] | mass density, 298.15 K [kg/m3]
a1 = 0.00628 | 0.0627 | 0.072 | 0.0816 | 0.0916 | 0.102 | 0.112 | 0.122 | 998.09
a1 = 0.02608 | 0.204 | 0.233 | 0.264 | 0.295 | 0.327 | 0.359 | 0.391 | 1001.41
a1 = 0.05064 | 0.333 | 0.382 | 0.432 | 0.483 | 0.534 | 0.585 | 0.638 | 1005.55
a1 = 0.1023 | 0.581 | 0.666 | 0.753 | 0.841 | 0.931 | 1.02 | 1.11 | 1014.14
a1 = 0.2077 | 1.02 | 1.17 | 1.32 | 1.48 | 1.63 | 1.79 | 1.94 | 1031.96
a1 = 0.4748 | 1.92 | 2.2 | 2.49 | 2.79 | 3.09 | 3.38 | 3.68 | 1078.96
a1 = 0.7453 | 2.62 | 3 | 3.4 | 3.81 | 4.23 | 4.65 | 5.07 | 1129.79
a1 = 0.9563 | 3.01 | 3.46 | 3.85 | 4.41 | 4.91 | 5.41 | 5.91 | 1171.99
a1 = 1.191 | 3.27 | 3.78 | 4.31 | 4.86 | 5.42 | 6 | 6.57 | 1221.75
a1 = 1.298 | 3.34 | 3.87 | 4.42 | 5 | 5.59 | 6.19 | 6.8 | 1250.72
a1 = 1.489 | 3.32 | 3.87 | 4.45 | 5.05 | 5.68 | 6.32 | 6.97 | 1293.66
a1 = 1.623 | 3.22 | 3.77 | 4.35 | 4.96 | 5.6 | 6.25 | 6.92 | 1326.7
a1 = 1.826 | 2.96 | 3.49 | 4.07 | 4.68 | 5.32 | 5.99 | 6.67 | 1377.89
